Source: the supplement of paper PMC10307832

Assays:
Assay in all cases: relative viability (nuclei count vs DMSO), 5 days (fraction); higher = more cells survive
[1] = compound: CC1=CC(=C(N1C2=CC=C(C=C2)Cl)C)C(=O)CN3CCCCC3 [IU1-47] + O=C(c1cc(Cc2n[nH]c(=O)c3ccccc23)ccc1F)N1CCN(C(=O)C2CC2)CC1 [Olaparib] (partner 8 µM)
Outline: (§1)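 Dosing by pin tool came one day after lung cancer cell lines were seeded in 1536-well plates, using either one drug or a fixed anchor-drug dose plus five library-drug doses (not always all listed) in √10 steps. After 5 days, nuclei were counted on 4× images. Relative viability is treated-well nuclei count divided by vehicle-well nuclei count, and values are medians of duplicate plates.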

[2] = compound: CC1=CC(=C(N1C2=CC=C(C=C2)Cl)C)C(=O)CN3CCCCC3 [IU1-47] + CS(=O)(=O)CCNCc1ccc(-c2ccc3ncnc(Nc4ccc(OCc5cccc(F)c5)c(Cl)c4)c3c2)o1 [Lapatinib] (partner 2 µM)
Outline: as §1

[3] = compound: CC1=CC(=C(N1C2=CC=C(C=C2)Cl)C)C(=O)CN3CCCCC3 [IU1-47] + Cc1cc(Nc2cc(N3CCN(C)CC3)nc(Sc3ccc(NC(=O)C4CC4)cc3)n2)n[nH]1 [Tozasertib] (partner 0.1 µM)
Outline: as §1

[4] = compound: CC1=CC(=C(N1C2=CC=C(C=C2)Cl)C)C(=O)CN3CCCCC3 [IU1-47] + CC(C)C[C@H](NC(=O)[C@H](Cc1ccccc1)NC(=O)c1cnccn1)B(O)O [Bortezomib] (partner 0.002 µM)
Outline: as §1

Cell Line	relative viability ([1]; first compound 0.08 µM)	relative viability ([1]; first compound 0.8 µM)	relative viability ([1]; first compound 2.53 µM)	relative viability ([1]; first compound 8 µM)	relative viability ([2]; first compound 0.08 µM)	relative viability ([2]; first compound 0.253 µM)	relative viability ([2]; first compound 0.8 µM)	relative viability ([2]; first compound 2.53 µM)	relative viability ([2]; first compound 8 µM)	relative viability ([3]; first compound 0.08 µM)	relative viability ([3]; first compound 0.253 µM)	relative viability ([3]; first compound 0.8 µM)	relative viability ([3]; first compound 2.53 µM)	relative viability ([3]; first compound 8 µM)	relative viability ([4]; first compound 0.08 µM)	relative viability ([4]; first compound 0.253 µM)	relative viability ([4]; first compound 0.8 µM)	relative viability ([4]; first compound 2.53 µM)	relative viability ([4]; first compound 8 µM)	relative viability ([1]; first compound 0.253 µM)
NCI-H23	0.288	0.281	0.385	0.257	1.04	1.05	1.26	0.995	1.25	0.364	0.341	0.427	0.376	0.341	0.988	1.24	1.27	1.02	0.949	
NCI-H520	0.32	0.269	0.349	0.309	0.774	0.858	1	0.879	0.59	0.429	0.419	0.471	0.461	0.363	0.679	0.687	0.821	0.576	0.408	0.391
NCI-H460	0.545	0.501	0.398	0.35	1.2	1.14	0.997	0.655	0.7	0.459	0.513	0.496	0.57	0.393	1.14	1.25	1.14	1.2	0.469	0.407
EKVX	0.827	0.896		0.87	0.214	0.27	0.199	0.214	0.219	0.418	0.433	0.367	0.341	0.349	1.18	1.11	1.18	1.13	0.985	1.06
EPLC-272H	0.77	0.684	0.851	0.92	1.16	0.925	0.965		0.528	0.228	0.347	0.246		0.145	1.05	0.943	1.04		0.891	0.867
NCI-H2126	0.972	0.89	0.898	0.762	0.802	0.767	0.807	0.523	0.753	0.905	0.866	0.818		0.737	1.17	1.18	1.19	0.894	1.04	0.945
LXF-289	1.08	1.09	0.993	0.862	0.935	0.921	0.877	0.911	0.819	0.212	0.203	0.224	0.22	0.171	0.993	1.06	1.05	1.05	0.954	1.15
NCI-H2009	0.662	0.612	0.804	0.65	0.997	1.03	1.07	0.43	1.54	0.782	0.781	0.751	0.77	0.662	1.11	1.13	0.998	0.513	1.05	0.678
